Where two headings read alike, the source gives them in different places.

One assay deals with T1, PLA2G16 (Homo sapiens, UniProt P53816).
T1 construct: Hexa-His (N); made in house; host or cells: E. coli BL21(DE3)
T1 sequence (P53816 1-162): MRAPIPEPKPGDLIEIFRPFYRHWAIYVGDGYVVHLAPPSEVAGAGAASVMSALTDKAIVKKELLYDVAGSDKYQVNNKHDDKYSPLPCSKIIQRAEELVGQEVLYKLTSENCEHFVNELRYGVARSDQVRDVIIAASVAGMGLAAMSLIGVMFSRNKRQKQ
The assay is described as follows: Enzyme activity assay for PLA2G16 (Red/Green BODIPY PC-A2 fluorescence). It is filed as biochemical. To be noted: His-tagged PLA2G16, 4 min pre-incubation, 2 nM to 50 μM; read-out: IC50 values of the compounds determined in the enzyme activity assay for PLA2G16. In outline: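 N-His-tagged human PLA2G16 from E. coli, Ni-NTA purified. Pre-incubated 4 min with compound (2 nM–50 μM final) in pH 8.5 Tris/NaCl buffer with 5 mM glutathione, then BODIPY PC-A2 in DOPC/DOPG/cholesterol vesicles added. Fluorescence (ex 480/em 530 nm) increase over 10 min taken as activity; IC50 by non-linear regression.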

The subject of assay [1] is picornaviruses (CVB1, HRV-A2, HRV-A23, EV-68). As to the kind of experiment: Anti-picornavirus cytopathic effect (CPE) reduction assay on HeLa H1 cells. It counts as cell-based. To be noted: Enterovirus B, HeLa H1 cells, 48 h, category from averaging the EC50 values from four picornaviruses (CVB1, HRV-A2, HRV-A23, EV68), read-out: EC50 values of the compounds determined in the anti-picornavirus assay. In a few lines:
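HeLa H1 cells pre-treated 2 h with serially diluted compound in DMEM/2% FBS, then infected at an MOI giving full CPE in 2 days. After 48 h at 37° C, viability read by CellTiterBlue fluorescence (ex 560/em 590 nm), normalised to infected and uninfected vehicle controls; EC50 by non-linear regression, category from mean of four viruses.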
Background: Damage to the host cells serves as the signal in cytopathic effect assays.

On to `CC(NC(=O)c1c(Cl)cccc1Cl)C(=O)C(=O)NCC1CC1` (centres unmarked) [FP 163, N-(Cyclopropylmethyl)-3-[(2,6-dichlorophenyl)formamido]-2-oxobutanamide], for which the IC50 at PLA2G16 is less than 1 µM. The EC50 in assay [1] (HeLa H1, 48 h) is less than 1 µM.

In the case of `CC(C)C(C(=O)C(=O)NCC1CC1)N(C=O)CC(C)(C)C` (centres unmarked) [FP 31, N-(Cyclopropylmethyl)-3-[N-(2,2-dimethylpropyl)formamido]-4-methyl-2-oxopentanamide], the IC50 at PLA2G16 was less than 1 µM. In addition, in assay [1] (HeLa H1, 48 h), the EC50 is 1 to 10 µM.

`O=C(N[C@H]1CCCC[C@H]1O)C(=O)[C@H]1CCC(=O)N1Cc1ccccc1` (single isomer, unassigned) [FP 273]: the IC50 on PLA2G16 was in the range of 1 to 10 µM. Also, the EC50 in assay [1] (HeLa H1, 48 h) was in the range of 1 to 10 µM.

On to `O=C(NCCCc1nccs1)C(=O)C1CCC(=O)N1Cc1ccccc1` (centres unmarked) [FP 229, 2-(1-Benzyl-5-oxopyrrolidin-2-yl)-2-oxo-N-[3-(1,3-thiazol-2-yl)propyl]acetamide], for which, on PLA2G16, the IC50 was less than 1 µM. In assay [1] (HeLa H1, 48 h), the EC50 is less than 1 µM.

In the case of `O=C(NCC1CCOCC1)C(=O)C1CCC(=O)N1Cc1ccc(Cl)cc1` (centres unmarked) [FP 235, 2-{1-[(4-Chlorophenyl)methyl]-5-oxopyrrolidin-2-yl}-N-[(oxan-4-yl)methyl]-2-oxoacetamide], the IC50 on PLA2G16 is less than 1 µM. Moreover, the half-maximal effective concentration (EC50) in assay [1] (HeLa H1, 48 h) is 1 to 10 µM.

As to `CC(C(=O)C(=O)NCC1CC1)N(C=O)CC1CCN(C(=O)OC(C)(C)C)CC1` (centres unmarked) [FP 39, tert-Butyl 4-[(N-{1-[(cyclopropylmethyl)carbamoyl]-1-oxopropan-2-yl}formamido)methyl]piperidine-1-carboxylate], the IC50 at PLA2G16 lay within 1 to 10 µM. Besides, the EC50 in assay [1] (HeLa H1, 48 h) was more than 10 µM.

`Cc1ccc(C(=O)NC(C)C(=O)C(=O)NCC2CC2)cc1` (centres unmarked) [FP 159, N-(Cyclopropylmethyl)-3-[(4-methylphenyl)formamido]-2-oxobutanamide]: at PLA2G16, the IC50 was less than 1 µM. The EC50 in assay [1] (HeLa H1, 48 h) is more than 10 µM.

Take `O=C(COCc1ccccc1)C(=O)NCC1CC1` [FP 128, 3-(Benzyloxy)-N-(cyclopropylmethyl)-2-oxopropanamide]: at PLA2G16, the IC50 was less than 1 µM. In assay [1] (HeLa H1, 48 h), the EC50 is less than 1 µM.

For `CCC(NC(=O)c1ccncc1)C(=O)C(=O)NCC1CCCCC1` (centres unmarked) [FP 208, N-(Cyclohexylmethyl)-2-oxo-3-[(pyridin-4-yl)formamido]pentanamide], the 50% inhibitory concentration (IC50) on PLA2G16 is less than 1 µM. For the same compound, the EC50 in assay [1] (HeLa H1, 48 h) was more than 10 µM.

As to `CC(=O)NCCOCCOCCNC(=O)C(=O)C1CCC(=O)N1Cc1ccc(Cl)cc1` (centres unmarked) [FP 327, 2-{1-[(4-Chlorophenyl)methyl]-5-oxopyrrolidin-2-yl}-N-{2-[2-(2-acetamidoethoxy)-ethoxy]ethyl}-2-oxoacetamide], the IC50 at PLA2G16 lay within 1 to 10 µM. Also, the EC50 in assay [1] (HeLa H1, 48 h) was more than 10 µM.

Turning to `CC(NC(=O)c1ccccc1)C(=O)C(=O)NCC1CCC1` (centres unmarked) [FP 181, N-(Cyclobutylmethyl)-2-oxo-3-(phenylformamido)butanamide], the half-maximal inhibitory concentration (IC50) on PLA2G16 is less than 1 µM. In addition, the EC50 in assay [1] (HeLa H1, 48 h) lay in the range of 1 to 10 µM.

For the compound `CC(C)CNC(=O)C(=O)C(C)N(C=O)CC(F)(F)F` (centres unmarked) [FP 46, N-(2-Methylpropyl)-2-oxo-3-[N-(2,2,2-trifluoroethyl)formamido]butanamide], on PLA2G16, the IC50 is less than 1 µM. In assay [1] (HeLa H1, 48 h), the EC50 was in the range of 1 to 10 µM.

`C[C@H]1CC(=O)N(Cc2ccccc2)[C@@H]1C(=O)C(=O)NCC1CC1` (single isomer, unassigned) [FP 334]: the IC50 at PLA2G16 is less than 1 µM. Further, the EC50 in assay [1] (HeLa H1, 48 h) was 1 to 10 µM.

With `O=C(NC1CC(F)C1)C(=O)[C@H]1CCC(=O)N1Cc1ccccc1` (stereo partly drawn) [FP 294, 2-[(2R)-1-Benzyl-5-oxopyrrolidin-2-yl]-N-(3-fluorocyclobutyl)-2-oxoacetamide], the IC50 on PLA2G16 was less than 1 µM. The EC50 in assay [1] (HeLa H1, 48 h) was less than 1 µM.

With `N#Cc1ccc(CN2C(=O)CCC2C(=O)C(=O)NCC2CC2)cc1` (centres unmarked) [FP 233, 2-{1-[(4-Cyanophenyl)methyl]-5-oxopyrrolidin-2-yl}-N-(cyclopropylmethyl)-2-oxoacetamide], the IC50 at PLA2G16 was less than 1 µM. Also, in assay [1] (HeLa H1, 48 h), the EC50 lay in the range of 1 to 10 µM.

As to `O=C(NCC1CCCC1)C(=O)C1CCC(=O)N1CC1CC1` (centres unmarked) [FP 255, N-(Cyclopentylmethyl)-2-[1-(cyclopropylmethyl)-5-oxopyrrolidin-2-yl]-2-oxoacetamide], on PLA2G16, the IC50 is less than 1 µM. In addition, the EC50 in assay [1] (HeLa H1, 48 h) fell in the range of 1 to 10 µM.

As to `COc1ccccc1N(C=O)C(C)C(=O)C(=O)N[C@@H](C)C(C)C` (stereo partly drawn) [FP 108, 3-[N-(2-Methoxyphenyl)formamido]-N-[(2S)-3-methylbutan-2-yl]-2-oxobutanamide], on PLA2G16, the half-inhibitory concentration (IC50) is less than 1 µM. Also, in assay [1] (HeLa H1, 48 h), the EC50 was less than 1 µM.

For the compound `O=C(NC1CCCC1)C(=O)[C@H]1CCC(=O)N1Cc1ccccc1` [FP 239, 2-[(2R)-1-Benzyl-5-oxopyrrolidin-2-yl]-N-cyclopentyl-2-oxoacetamide], on PLA2G16, the IC50 is less than 1 µM. Besides, the EC50 in assay [1] (HeLa H1, 48 h) was less than 1 µM.

Consider `COCCCN(C=O)C(CC(C)C)C(=O)C(=O)NCC1CC1` (centres unmarked) [FP 72, N-(Cyclopropylmethyl)-3-[N-(3-methoxypropyl)formamido]-5-methyl-2-oxohexanamide], for which the IC50 at PLA2G16 was less than 1 µM. Moreover, the EC50 in assay [1] (HeLa H1, 48 h) is 1 to 10 µM.

In the case of `CC(NC(=O)C1CCC(F)(F)CC1)C(=O)C(=O)NCC1CC1` (centres unmarked) [FP 173, N-(Cyclopropylmethyl)-3-[(4,4-difluorocyclohexyl)formamido]-2-oxobutanamide], at PLA2G16, the IC50 was in the range of 1 to 10 µM. The EC50 in assay [1] (HeLa H1, 48 h) was more than 10 µM.

`CC(C)CC(C(=O)C(=O)NCC1CC1)N(C=O)CC1CCOCC1` (centres unmarked) [FP 63, N-(Cyclopropylmethyl)-5-methyl-3-{N-[(oxan-4-yl)methyl]formamido}-2-oxohexanamide]: on PLA2G16, the IC50 was less than 1 µM. Moreover, in assay [1] (HeLa H1, 48 h), the EC50 was less than 1 µM.

For the compound `CC(NC(=O)c1ccccc1)C(=O)C(=O)NCC1CCCC1` (centres unmarked) [FP 180, N-(Cyclopentylmethyl)-2-oxo-3-(phenylformamido)butanamide], the IC50 at PLA2G16 is less than 1 µM. Moreover, the EC50 in assay [1] (HeLa H1, 48 h) was 1 to 10 µM.

`O=C(NCC1CC1)C(=O)C1CCC(=O)N1CC1CCCCC1` (centres unmarked) [FP 202, 2-[1-(Cyclohexylmethyl)-5-oxopyrrolidin-2-yl]-N-(cyclopropylmethyl)-2-oxoacetamide]: on PLA2G16, the IC50 was less than 1 µM. For the same compound, in assay [1] (HeLa H1, 48 h), the EC50 is less than 1 µM.

As for `O=C(NCC1CC1)C(=O)C1CCCC(=O)N1Cc1ccccc1` (centres unmarked) [FP 204, 2-(1-Benzyl-6-oxopiperidin-2-yl)-N-(cyclopropylmethyl)-2-oxoacetamide], the IC50 at PLA2G16 was less than 1 µM. In addition, the EC50 in assay [1] (HeLa H1, 48 h) was 1 to 10 µM.

Turning to `O=C(NC1CC1)C(=O)[C@H]1CCC(=O)N1Cc1ccccc1`, the IC50 at PLA2G16 was less than 1 µM. Moreover, the concentration for a half-maximal effect (EC50) in assay [1] (CVB1|EV68|HRVA2|HRVA23, HeLa H1, 48 h) is less than 1 µM.

For `O=C(NC1CC1)C(=O)C1CCC(=O)N1Cc1ccc(F)cc1` (centres unmarked) [FP 242, N-Cyclopropyl-2-{1-[(4-fluorophenyl)methyl]-5-oxopyrrolidin-2-yl}-2-oxoacetamide], on PLA2G16, the IC50 is less than 1 µM. For the same compound, the EC50 in assay [1] (HeLa H1, 48 h) fell in the range of 1 to 10 µM.

Regarding `CC(C)OCCNC(=O)C(=O)[C@H]1CCC(=O)N1Cc1ccccc1` [FP 286, 2-[(2R)-1-Benzyl-5-oxopyrrolidin-2-yl]-2-oxo-N-[2-(propan-2-yloxy)ethyl]acetamide], on PLA2G16, the IC50 is less than 1 µM. In assay [1] (HeLa H1, 48 h), the EC50 was 1 to 10 µM.

For `O=C(NCC1CCCCC1)C(=O)C1CCC(=O)N1Cc1nccs1` (centres unmarked) [FP 311], the IC50 on PLA2G16 is less than 1 µM. The EC50 in assay [1] (HeLa H1, 48 h) is less than 1 µM.

As for `CC(C(=O)C(=O)NC1CC1)N(C=O)Cc1ccccc1` (centres unmarked) [FP 44, 3-(N-Benzylformamido)-N-cyclopropyl-2-oxobutanamide], the IC50 on PLA2G16 was less than 1 µM. Also, the EC50 in assay [1] (HeLa H1, 48 h) lay within 1 to 10 µM.

In the case of `COc1ccccc1C(=O)NC(C)C(=O)C(=O)NCC1CC1` (centres unmarked) [FP 168, N-(Cyclopropylmethyl)-3-[(2-methoxyphenyl)formamido]-2-oxobutanamide], the IC50 on PLA2G16 is less than 1 µM. In assay [1] (HeLa H1, 48 h), the EC50 is 1 to 10 µM.

As for `O=C(NC1CN(C(=O)C2CCC2)C1)C(=O)[C@H]1CCC(=O)N1Cc1ccccc1` [FP 318, 2-[(2R)-1-Benzyl-5-oxopyrrolidin-2-yl]-N-(1-cyclobutanecarbonylazetidin-3-yl)-2-oxoacetamide], on PLA2G16, the IC50 was less than 1 µM. Further, the EC50 in assay [1] (HeLa H1, 48 h) is 1 to 10 µM.

Consider `COc1ccccc1OC(C)C(=O)C(=O)NC(C)C` (centres unmarked) [FP 135, 3-(2-Methoxyphenoxy)-2-oxo-N-(propan-2-yl)butanamide], for which the IC50 on PLA2G16 is less than 1 µM. The EC50 in assay [1] (HeLa H1, 48 h) lay within 1 to 10 µM.

`Cc1cccc(CN2C(=O)CCC2C(=O)C(=O)NC2CC2)c1` (centres unmarked) [FP 269, N-Cyclopropyl-2-{1-[(3-methylphenyl)methyl]-5-oxopyrrolidin-2-yl}-2-oxoacetamide]: on PLA2G16, the IC50 was less than 1 µM. Moreover, the 50% effective concentration (EC50) in assay [1] (HeLa H1, 48 h) was in the range of 1 to 10 µM.

On to `O=CN(CC1CCOCC1)C(CCc1ccccc1)C(=O)C(=O)NCC1CC1` (centres unmarked) [FP 68, N-(Cyclopropylmethyl)-3-{N-[(oxan-4-yl)methyl]formamido}-2-oxo-5-phenylpentanamide], for which the IC50 at PLA2G16 was less than 1 µM. In assay [1] (HeLa H1, 48 h), the EC50 was less than 1 µM.

What is called IC50 is the concentration that gives 50% inhibition. One may read the EC50 as the concentration that produces a half-maximal response.

For the origin of these results see patent publication US11091428B2 (HAPLOGEN GMBH, priority 2016, dated 2021).
